Measured values taken from patent publication EP1306084A1, “Compositions for the control of parasitic infestations in fish” (Alpharma AS, priority 1998, dated 1999).

Assays:
[1] = Chemical analysis of muscle/skin after injection of hexaflumuron formulations (Example 8); type: in vivo, salmon smolt; conditions: 50 mg/kg; for concentration at 5232 h: fish, muscle/skin, T8 (218 days after injection)
Experimental: Tissue samples (muscle/skin) for chemical analysis were collected from five fish injected with the various hexaflumuron formulations at each sample point in time throughout the trial. […] At sea water transfer, the muscle/skin concentrations in the two other hexaflumuron groups (Apoject 1-Fural, animal oil) varied between 1 and 2.5 µg hexaflumuron/g tissue.

[2] = Adverse or side effects observed over all trials; type: in vivo, fish; conditions: injection, bath solution or oral treatment; all dosages examined
Excerpt: This is in regard to all the dosages that have been examined and the various administration methods which have been used.

sea lice = test: Oral or bath treatment in freshwater before sea transfer, sea lice counts after natural infestation (Example 6); type: in vivo, Atlantic salmon (Salmo salar)
Experimental: The treatment dosage was 9 mg hexaflumuron per kg fish per day for 10 days. This is indicated by "Groups/Timepoints" in the figure; • Figure 2 relates to the trial in Example 2 that was carried out on Atlantic salmon (Salmo salar). […] The treatment dosage varied between 3 - 9 mg hexaflumuron and 9- 12 mg fluazuron per kg fish per day for 7 days. This is indicated by "Groups/Timepoints" in the diagram. […] The treated groups are compared to an untreated control group. The treatment dosage was 4 mg hexaflumuron per kg fish per day for 5 days. This is indicated by "Groups/Timepoints" in the figure. Cage 2 = controls, Cage 4-6 = treated groups, 16.6.97 = time point for sea transfer and 5.8.97= controls treated by bathing with deltamethrin; • Figure 4 relates to the trial described in Example 5, which was carried out on sea trout (Salmo trutta). […] The treated groups are compared with an untreated control group. The dosage for oral treatment was 4 mg hexaflumuron per kilo fish per day for 5 days, and 5 ppm hexaflumuron as a 30 minute bath treatment. This is indicated by "Groups/Timepoints" in the figure. Cage 1.4 = Controls, cage 1.3 = Oral treatment, cage 1.2 = Bath treatment. […] The treated groups are compared with an untreated control group, and one group that has been treated orally with teflubenzuron (10 mg/kg of teflubenzuron per kg fish per day for 7 days). The dosage for oral treatment was 5.6 mg hexaflumuron per kg fish per day for 7 days, and 5 ppm hexaflumuron as a 30 minute bath treatment. […] End of treatment: 22.10.97, Sea transfer: 23.10.97. T1 = 3 weeks post end of treatment, T2 = 5 weeks post end of treatment, T3 = 9 weeks post end of treatment, T4 = 12 weeks post end of treatment; • Figure 6 relates to the trial in Example 6 at time points 4-6, with the same trial parameters as for Figure 5. T5 = 15 weeks post end of treatment, T6 = 17 weeks post end of treatment. Cage 3 and 4 were treated by bath with deltamethrin after sea lice counting at T4 (12.01.98); • Figure 7 relates to the trial described in Example 7 where salmon were injected on 17.12.97 with two formulations (groups L and R, respectively) of hexaflumuron and a vaccine formulation without hexaflumuron (control). […] The vaccinated fish was transferred to sea water on 09.01.98; • Figure 8 summarises the trial of Example 8 where salmon smolts were injected with 9 different active substances on 08.07.98. Only results for Moxidectin (Mox.), Lufenuron (Luf.) and hexaflumuron in Apoject 1-Fural (Hex.Apo) and in animal oil (Hex.oil) are shown, and • Figure 9 summarises the trial described in Example 10 where salmon were injected on 03.12.97 with 3 different formulations of hexaflumuron (Hexa 1, Hexa 2 and Hexa 3). The fish were transferred to sea water at T0.
About 400 Atlantic salmon (Salmo salar) of an average weight of 80 grams were divided into four groups of 100 fish in each. One group was given an oral treatment of 5.6 mg hexaflumuron per kg fish each day for 7 days before sea transfer. Group two was given a bath treatment with a dosage of 5 ppm (mg/l) hexaflumuron for 30 minutes with a formulation containing 10% hexaflumuron. Group three was given oral treatment with a daily dosage of 10 mg teflubenzuron per kg fish for 7 days, while the last group remained untreated. […] Every third week, lice from 10 fish in each cage were counted to assess if there was a difference in the number of lice between the cages. […]

[3] = Specific growth rate after sea transfer (Example 4); type: in vivo, salmon (Salmo salar); conditions: treated groups, after about 12 weeks; control group 1.79%
Experimental: About 2,500 salmon (Salmo salar) of average weight 42 grams were treated orally with a daily dosage of 4 mg hexaflumuron per kilo fish for 5 days. The treatment was carried out in freshwater one week before the fish were transferred to sea water. In the sea water, the fish was distributed into 3 different minicages with 800-850 fish in each. At the same time 1,000 untreated fish (from a different fish farm) weighing on average 50 grams were transferred to sea in a neighbouring cage. After being transferred to sea water, the fish were exposed to natural sea lice infection. The number of lice on 10 fish from each cage were counted every third week to check if there was any difference in the number of lice in the cages. When ending the trial, about 12 weeks after the fish had been transferred to sea, the fish in each cage were weighed to check possible differences in growth (SGR, specific growth rate). The water temperature varied between 10-16°C during the trial. […] From 9 weeks on, there was no difference between the groups. The dosage rate that was used in this trial, i.e. 4 mg of hexaflumuron per kg fish per day, is very low. By increasing the dosage the protection time would probably be extended. […] The SRG was measured after about 12 weeks and it was estimated at 1.79% in the control group, and 1.95 - 2.00% in the treated groups.

With `O=C(NC(=O)c1c(F)cccc1F)Nc1cc(Cl)c(OC(F)(F)C(F)F)c(Cl)c1` [hexaflumuron] the “hexaflumuron concentrations in muscle/skin” value ([1]; T3, injected in an aqueous suspension (PBS)) was “below 0.02 µg per g”, the concentration at 5232 h ([1]; Apoject 1-Fural group) was 260 ng/g and the concentration at 5232 h ([1]; animal oil group) was 270 ng/g. The “adverse or side effects” value [2] was “No adverse or side effects have been observed”, the protection period (sea lice; hexaflumuron oral or bath before sea transfer) was “at least 11 weeks” and the “number of lice larger than Chalimus II versus control” value (sea lice; oral 5.6 mg per kg each day for 7 days or bath 5 ppm for 30 minutes, 5, 8 and 11 weeks (time points 2, 3 and 4)) was “significantly lower”. The “SGR (specific growth rate)” value [3] was 1.95 - 2.00%.
